Results published in US20250327032A1, “AGENT FOR AVOIDING IMMUNE RESPONSE OF TRANSGENIC CELLS” (HYPERION DRUG DISCOVERY CO., LTD., priority 2021, published 2025).

What was measured:
Assay type in all cases: cell-based
[1] = test system: human mesenchymal stem cells; assay: Introduction of GFP mRNA by lipofection, yield of GFP-positive cells; conditions: 10 pg/cell
Experimental: (§1) Human mesenchymal stem cells were seeded in a 6-well plate to be about 10,000 cells/cm^2. Human myoblasts were seeded in another 6-well plate to be about 20,000 cells/cm^2. As a culture solution, a basal medium for each cell supplemented with 0.1, 1, or 10 μM of JSH-23 was used. As a control, a basal medium for each cell supplemented with 0.1% (v/v) DMSO instead of JSH-23 was used as a culture solution.
(§2) A lipofection solution was prepared by adding Lipofectamine RNAiMAX and fluorescent protein GFP mRNA to OptiMEM. As the GFP mRNA, that containing uridine or that containing pseudouridine instead of uridine was used. In addition, for those containing pseudouridine, a basal medium for each cell supplemented with 1 μM of JSH-23 was used, and as a control, a basal medium for each cell supplemented with 0.1% (v/v) DMSO instead of JSH-23 was used as a culture solution. It was prepared so that the amount of mRNA was 10 pg/cell for human mesenchymal stem cells and 5 pg/cell for human myoblasts. The prepared lipofection solution was mixed well according to the manufacturer's recommended protocol and allowed to stand at room temperature for about 15 minutes.
(§3) Next, each lipofection solution was added to the plate seeded with human mesenchymal stem cells or human myoblasts, and cultured in a CO2 incubator at 37° C. for about 1 day (18 hours) (human mesenchymal stem cells) or for 2 days (42 hours) (human myoblasts). After culturing, all the culture solution comprising the lipofection solution was removed and replaced with a new culture solution having the same composition as before the addition of the lipofection solution.
(§4) After another 6 hours, the above lipofection solution was newly prepared, added again to the plate seeded with human mesenchymal stem cells or human myoblasts, and cultured in a CO2 incubator at 37° C. for about 1 day (18 hours) (mesenchymal stem cells) or about 2 days (42 hours) (human myoblasts). These steps were repeated so that the introduction of genes was performed a total of 4 times.
(§5) Twenty-four hours after the final introduction of genes, the cells were detached with a cell detachment solution, centrifuged at 600×g for 5 minutes using a centrifuge, to collect the cells. The collected cells were counted using a hemocytometer. Furthermore, the GFP-positive percentage of the collected cells was measured using a flow cytometer. The yield of the number of GFP-positive cells was calculated from the number of cells counted and the GFP-positive rate.
as §1, with “1” for “0.1, 1, or 10”, “calcitriol” for “JSH-23”
(§6) A lipofection solution was prepared by adding Lipofectamine RNAiMAX and fluorescent protein GFP mRNA to OptiMEM. As the GFP mRNA, that containing uridine, or that containing pseudouridine instead of uridine was used. It was prepared so that the amount of mRNA was 10 pg/cell for human mesenchymal stem cells and 5 pg/cell for human myoblasts. The prepared lipofection solution was mixed well according to the manufacturer's recommended protocol and allowed to stand at room temperature for about 15 minutes.

human myoblasts = assay: as above; conditions: 5 pg/cell
Experimental: as §1, §2, §3, §4, §5
as §1, with “1” for “0.1, 1, or 10”, “calcitriol” for “JSH-23”
as §6

[2] = test system: human mesenchymal stem cells; assay: Introduction of TERT plasmid by lipofection, number of viable cells; conditions: JSH-23 1 μM; TERT plasmid DNA 10 pg/cell
Experimental: Human mesenchymal stem cells were seeded in a 6-well plate to be about 10,000 cells/cm^2. As a culture solution, αMEM (+10% serum) supplemented with 1 μM of JSH-23 was used. As a control, αMEM (+10% serum) supplemented with 0.1% (v/v) DMSO instead of JSH-23 was used as a culture solution.
A lipofection solution was prepared by adding Lipofectamine RNAiMAX and TERT plasmid DNA to OptiMEM. The amount of plasmid DNA was prepared to be 10 pg/cell.
as §3, with “the” for “each”, “cells,” for “cells or human myoblasts,”, “18 hours.” for “about 1 day (18 hours) (human mesenchymal stem cells) or for 2 days (42 hours) (human myoblasts).”
After another 6 hours, the above lipofection solution was newly prepared, added again to the plate seeded with human mesenchymal stem cells, and cultured in a CO2 incubator at 37° C. for 18 hours. These steps were repeated so that the introduction of genes was performed a total of 4 times.
Twenty-four hours after the final introduction of genes, the cells were detached with a cell detachment solution, centrifuged at 600×g for 5 minutes using a centrifuge, to collect the cells. The collected cells were counted using a hemocytometer.

[3] = test system: Human leukemia T cells (Jurkat E6.1); assay: Introduction of GFP-tagged CAR-T plasmid by lipofection, yield of GFP-positive cells; conditions: JSH-23 0.1 μM; GFP-tagged CAR-T plasmid 1 pg/cell
Experimental: Human leukemia T cells (Jurkat E6.1) were seeded in a 6-well plate to be about 10,000 cells/cm^2. As a culture solution, RPMI1640 medium comprising 10% bovine serum was used. To this, 0.1 μM of JSH-23 was added, or for comparison, 0.1% (v/v) DMSO instead of JSH-23 was added and used.
A lipofection solution was prepared by adding Lipofectamine 2000 and GFP-tagged CAR-T plasmid to OptiMEM. The amount of CAR-T plasmid was prepared to be 1 pg/cell. The prepared lipofection solution was mixed well according to the manufacturer's recommended protocol and allowed to stand at room temperature for about 15 minutes.
Next, the lipofection solution was added to the plate seeded with human leukemia T cells, and cultured in a CO2 incubator at 37° C. for about 1 day (18 hours). […]
as §5, with “collected and” for “detached with a cell detachment solution,”, “800 rpm” for “600×g”, “percentage.” for “rate.”

[4] = GFP mRNA containing pseudouridine instead of uridine, JSH-23 1 μM

Structure (SMILES): Cc1ccc(NCCCc2ccccc2)c(N)c1 [JSH-23]
- yield of GFP-positive cells compared to the control (control set to 1) [1, 4]: ≥ 7 times
- yield of GFP-positive cells compared to the control (control set to 1) ([1]; GFP mRNA containing uridine, 4 introductions, JSH-23 0.1, 1 or 10 μM, maximal at 1 μM, control 0.1% DMSO): ≥ 7 times
- yield of GFP-positive cells compared to the control (control set to 1) (human myoblasts; [4]): ≥ 2 times
- yield of GFP-positive cells compared to the control (control set to 1) (human myoblasts; GFP mRNA containing uridine, JSH-23 0.1, 1 or 10 μM): ≥ 3 times
- number of viable cells compared to the control (control set to 1) [2]: ≥ 1.4 times
- number of GFP-positive cells compared to the control (control set to 1) [3]: ≥ 2 times
